Assay results taken from US20120082736A1, “Small-molecule TNF modulator to reduce the side effects of chemotherapy and radiotherapy” (GeneBlue Corporation, priority 2010, published 2012).
Entries after “also recorded” stand apart in the source; their conditions may differ.

How the values were obtained:
TNF-α = assay: Liver TNF-α levels after liver irradiation (ELISA); format: in vivo, mice
Experimental: Mice were treated individually with 0.3 mL each of UTL-5g preparations i.p. 1 hr prior to liver irradiation at 15 Gy. Liver TNF-α levels were analyzed by standard ELISA methodology.
Based on the preliminary studies, UTL-5g was selected for dose-dependent radioprotective studies. In this study, animals were treated with increasing doses of UTL-5g (from 0 to 60 mg/kg) one hr prior to liver irradiation (15 Gy). Two hr after irradiation, animals were sacrificed and serum AST/ALT enzyme activities and liver TNF-α levels were determined. […] For animals pre-treated with UTL-5g at 30 mg/kg, AST/ALT activity levels were lowered from 135/29 to 89/22 Unit/L, and those pre-treated with UTL-5g at 60 mg/kg, AST/ALT levels were reduced from 135/29 to 74/19 Unit/L, respectively.

[1] = tested on: human colon cancer cells (HCT-15); assay: Effect of UTL-5g pretreatment on antitumor effect of cisplatin, HCT-15 tumors in SCID mice (Example 4); format: in vivo
Experimental: FIG. 7. Effect of UTL-5g pre-treatment on the antitumor effect of cisplatin Group 1, saline, daily ×5 (control); Group 2, cisplatin (2.5 mg/kg) in saline, daily ×5; Group 3, UTL-5g (60 mg/kg) followed by cisplatin (2.5 mg/kg) 30 min later, daily ×5. […] Gp: Group
In order to qualify UTL-5g as a chemoprotective agent, a therapeutic assessment was conducted to evaluate the effect of UTL-5g on the efficacy of cisplatin. Briefly, 25 SCID mice were randomly divided into 5 groups as below. • Gp 1: Saline daily ×5 (control) • Gp 2: Cisplatin 0.2 mg/mL (2.5 mg/kg), daily ×5 • Gp 3: UTL-5g (60 mg/kg) followed by cisplatin (2.5 mg/kg) 30 min later, daily ×5 • Gp 4: Cisplatin 0.4 mg/mL ([…]) in saline, day 1 only • Gp 5: UTL-5g (60 mg/kg) followed by cisplatin (5 mg/kg) 30 min later, day 1 only
Cisplatin was dissolved in saline. UTL-5g was prepared in DMSO/Cremophor/propylene glycol/saline as described in previous section. All injections were ip and the injection volume was 0.25 mL. Three days before treatment (Day −2), human colon cancer cells (HCT-15) were injected subcutaneously and bilaterally (1×10^6 cells per site per mouse) in each SCID mouse in all groups and tumor sizes were measured by a caliper every 2-3 days and the animals were sacrificed when tumor reached 1,200 mm^3.
The % T/C value is used here as the end-point. […]

mice = conditions: cited from earlier work
BDF1 mice = assay: Add-on study: does UTL-5g increase platelet count by itself (Example 3); format: in vivo
Experimental: Gp 1: medium (saline). Gp 2: saline followed by cisplatin (2.5 mg/kg) 30 min later. Gp 3: UTL-5g (15 mg/kg) followed by cisplatin 30 min later. Gp 4: UTL-5g (30 mg/kg) followed by cisplatin (2.5 mg/kg) 30 min later. Gp 5: UTL-5g (60 mg/kg) followed by cisplatin (2.5 mg/kg) 30 min later. Gp 6: amifostine (200 mg/kg) followed by cisplatin (2.5 mg/kg) 30 min later. Gp 7: saline followed by cisplatin (5 mg/kg) 30 min later. Gp 8: UTL-5g (60 mg/kg) followed by medium (saline) 30 min later. Gp 1-Gp 6 were daily ×5, but Gp 7 was by single dose on day 0 only. StDev is shown for each Gp (n=5 for each group except n=4 for Gp 7). * P<0.05, ** p<0.005 vs. medium control by Student's t-t (two-tailed).
To further investigate whether UTL-5g by itself would increase platelet count, the following small add-on study was conducted: • Gp 1: medium (saline) followed by medium (saline) 30 min later (same as Gp 1 before) • Gp 2: medium (saline) followed by cisplatin (2.5 mg/kg) 30 min later (same as Gp 2 before) • Gp 5: UTL-5g (60 mg/kg) followed by cisplatin (2.5 mg/kg) 30 min later (Same as Gp 5 before) • Gp 8: UTL-5g alone (60 mg/kg) followed by medium (saline) 30 min later (New Gp)

Compound: Cc1cc(C(=O)Nc2ccc(Cl)cc2Cl)no1 [UTL-5g]
- liver TNF-α levels, reduction (TNF-α; UTL-5g 30 mg/kg i.p. 1 hr prior to liver irradiation 15 Gy): 20%
- liver TNF-α levels, reduction (TNF-α; UTL-5g 60 mg/kg i.p. 1 hr prior to liver irradiation 15 Gy): 29%
- effect on efficacy of cisplatin ([1]; UTL-5g 60 mg/kg 30 min before cisplatin 2.5 mg/kg, daily ×5 (Gp 3 vs Gp 2)): increased the efficacy of cisplatin; also recorded: did not have tumor-protective effect and actually increased the efficacy of cisplatin
- enhancement of efficacy of cisplatin ([1]; UTL-5g 60 mg/kg 30 min before cisplatin 5 mg/kg, single dose (Gp 5 vs Gp 4)): not observed
- LD50 (acute toxicity) (mice): > 200 mg/kg
- platelet count (BDF1 mice; UTL-5g 60 mg/kg followed 30 min later by cisplatin 2.5 mg/kg or by saline): significantly increased platelet count
- WBC, protective effect (BDF1 mice; UTL-5g 60 mg/kg followed by cisplatin 2.5 mg/kg or saline): no significant protective effect
- platelet production, UTL-5g by itself (BDF1 mice; UTL-5g alone 60 mg/kg followed by saline, mice not treated by cisplatin): stimulated the production of platelets; also recorded: increased platelet counts
